Results on 71 compounds are retold here after PubChem BioAssay AID179 (DTP/NCI, 2004).

For this experiment, the system named is CEM cells HIV-1 protection, formazan growth assay. The experiment can be described thus: NCI AIDS Antiviral Assay. The note with it: for IC50: measured here: growth of uninfected CEM cells. In a few lines:
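Screen of anti-HIV-1 activity in human CEM cells using a formazan-based growth measurement at five drug concentrations. Hits with 50% or greater protection were repeated, and confirmation required reproducible complete protection.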

Values joined by “and” are separate entries in the source; they are usually repeats but may differ in a detail not shown here. Identical values can stand only once. Active and inactive are the calls of the source.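 The calls were made as follows: active = compounds giving half or more protection of infected cells from virus-caused growth loss, again on retest; inactive = the rest.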 Where a SMILES comes first, the peptide text is derived from it. Bounds are passed on as bounds.

As for `CCc1nc(N)nc(N)c1-c1ccc(Cl)c(Cl)c1`, the EC50 is over 200 µM and the IC50 is 1.45 µM. The matching figures for `CCOC(=O)C1C(c2ccc(OC)cc2)c2c([nH][nH]c2=O)CC1(C)O` (configuration not stated): over 200 µM and over 200 µM. On the same counts, the results for `C(#Cc1ccccc1)SC1=C(c2ccccc2)S/C(=C(\SC#Cc2ccccc2)c2ccccc2)S1` are over 200 µM and over 200 µM.

Take `CSc1nc(Cl)c2c(n1)Sc1nc3cc4c(cc3n1C2O)OCO4` (configuration not stated): the EC50 is over 100 µM and the IC50 came out at 0.525 µM. For `OC1CC(O)O[C@H](c2ccccc2)C1` (some centres not stated), the outcome was inactive. Regarding `O=C1OC(Cc2ccccc2)=C(Cl)C(Cl)(Cc2ccccc2)C1Cl` (configuration not stated), the EC50 was over 200 µM and the IC50 turned out to be 5.25 µM.

Consider `CCOc1cc(N=Nc2cc(Cl)c(S(=O)(=O)O)cc2Cl)c2cc(S(=O)(=O)O)ccc2c1N=Nc1c(S(=O)(=O)O)cc2cc(NC(=O)c3ccc(N)cc3)ccc2c1O`, for which the result was active. Regarding `O=S1[C@H](c2ccccc2)c2c(-c3ccccc3)sc(-c3ccccc3)c2[C@@H]1c1ccccc1` (some centres not stated), the result was inactive. As to `N#Cc1c(C#N)c(-c2ccccc2)n(Cc2ccccc2)c1N`, the EC50 is over 200 µM and the IC50 was over 200 µM. Regarding `CC(=O)N1C/C(=C\c2ccccc2)C(=O)/C(=C/c2ccccc2)C1`, the outcome was inactive. Turning to `C=C(CCC(Cl)C(COS(=O)(=O)c1ccc(C)cc1)OC(CCCO[Si](c1ccccc1)(c1ccccc1)C(C)(C)C)OCC)[Si](C)(C)C` (configuration not stated), the EC50 was over 5.01 µM and the IC50 was over 5.01 µM.

Turning to `CC/C(=N/OC(=O)N(CC)CC)c1ccccc1`, the EC50 is over 200 µM and the IC50 was 117 µM.

Take `Cc1ccnc2c1C(=O)C(=O)C=C2N1CCCCC1`: the result was inactive. With `CCN(CC)CCC(=O)c1ccccc1`, the EC50 is over 871 µM; the IC50 was > 200 µM and 26.9 µM. On to `O=C(Nc1cccc(Cl)c1)Nc1ccc[nH]c1=O`, for which the EC50 is over 490 µM and the IC50 was found to be 25.1 µM. The matching figures for `CC1=NN(C(=O)CC(=O)Nc2cccc(C)c2)C(=O)C1N=Nc1ccc(S(=O)(=O)CCOS(=O)(=O)O)cc1` (configuration not stated): over 2 µM and 1.26 µM. Consider `CCOC(=O)c1cc2nc(NC(=O)c3ccccc3)sc2n1C`, for which the EC50 was over 200 µM and the IC50 was over 200 µM. Consider `N#C/C(=C\c1ccccc1)c1ccc(Cl)cc1`, for which the EC50 was over 200 µM and the IC50 was determined as 57.5 µM. Turning to `CN(C)c1ccc(/C=C(/C#N)c2ccc(Cl)cc2)cc1`, the EC50 was over 100 µM and the IC50 was found to be 1.23 µM.

As for `Cc1ccc(NC(=O)CC2C(=O)Nc3ccccc3S2(=O)=O)cc1C` (configuration not stated), the EC50 is over 10.5 µM and the IC50 is over 10.5 µM. As for `Cc1ccc(-c2nc3n(c2/C=N\N=C(N)N)CCS3)cc1`, the EC50 was over 200 µM and the IC50 is 29.5 µM. The matching figures for `Oc1cc(O)c2ccc(-c3ccc(O)c(O)c3)[o+]c2c1`: over 200 µM and 12.3 µM. Take `COc1ccc(C(=O)C(c2ccc(OC)cc2)C2(O)C(=O)Nc3c(Cl)cc(Cl)cc32)cc1` (configuration not stated): the EC50 is over 39.8 µM and the IC50 was over 39.8 µM. For `CCN=C(NC(=O)c1ccc(F)cc1)SCSC(=NCC)NC(=O)c1ccc(F)cc1`, the EC50 was over 200 µM and the IC50 was over 200 µM.

Turning to `O=c1c2c([nH]c3c1ccc1[nH]c4c(c(=O)c13)CCCC4)CCCC2`, the EC50 is over 42.7 µM and the IC50 is over 42.7 µM.

Take `CC1(C)COC(C23C4C5C2C2C3C4C52I)=N1` (configuration not stated): the EC50 is over 79.4 µM and the IC50 was over 79.4 µM.

As for `Cc1cc(N(CCC#N)CCC#N)ccc1/C(N=Nc1ccc(C(=O)O)cc1)=N\NC(=O)c1ccccc1`, the EC50 was over 200 µM and the IC50 stood at 13.5 µM. The matching figures for `CC1c2c(cc(=O)n(Cc3ccccc3)c2O)C(=O)N1Cc1ccccc1` (configuration not stated): over 72.4 µM and 61.7 µM. On the same counts, the results for `c1ccc([P+](Cc2ccco2)(c2ccccc2)c2ccccc2)cc1` are over 200 µM and 3.39 µM. The matching figures for `Cn1c2ccccc2n2c3ccccc3c3nnc(N)c-3c12`: over 200 µM and 28.2 µM.

For the compound `CN(C)CCCNC(=O)CCNC(=O)c1cc(NC(=O)c2cc(NC(=O)c3cc(NC(=O)c4nc(NC(=O)CCCNC(=O)c5cc(NC(=O)c6cc(NC(=O)c7cc(NC(=O)c8nccn8C)cn7C)cn6C)cn5C)cn4C)cn3C)cn2C)cn1C`, the EC50 is over 141 µM and the IC50 came to 24.5 µM. The matching figures for `CN(C)c1ccc(-c2c3ccccc3nc3ccccc23)cc1`: over 4.57 µM and over 4.57 µM. The matching figures for `COc1ccc(NC(=S)Nc2c(C)n(C)n(-c3ccccc3)c2=O)cc1`: over 200 µM and over 200 µM. As for `CCNCC(O)COc1ccc2c(c1)[n+]([O-])nc(N)[n+]2[O-]` (configuration not stated), the EC50 was over 200 µM and the 50% inhibitory concentration (IC50) came out at 13.8 µM. On the same counts, the results for `O=C1CCC(N2C(=O)C3CCCCC3C2=O)C(=O)N1` (configuration not stated) are over 200 µM and over 200 µM.

Regarding `CC(C)(C)COC1C2(OCCO2)C2CCC1(C)C2(C)C` (configuration not stated), the EC50 is over 200 µM and the IC50 is over 200 µM. On to `COC(=O)C1CC(C(=O)OC)c2nc3cc([N+](=O)[O-])ccc3nc21` (configuration not stated), for which the EC50 is over 151 µM and the 50% inhibitory concentration (IC50) was determined as 61.7 µM. On the same counts, the results for `O=S(=O)(c1ccc(O)cc1)c1ccc(O)cc1` are over 200 µM and 158 µM. On the same counts, the results for `O=C(CC(c1ccccc1)C1C(=O)C12CCCC2)c1ccccc1` (configuration not stated) are over 81.3 µM and over 81.3 µM. On the same counts, the results for `Brc1ccc(N2N=NC3C4CC(C5CCCC54)C32)cc1` (configuration not stated) are over 5.62 µM and over 5.62 µM. As to `O=C(N/N=C/c1ccccn1)c1ccccc1[O-].O=C(N/N=C/c1ccccn1)c1ccccc1[O-].[Co+2]`, the EC50 was over 200 µM and the half-inhibitory concentration (IC50) came to 33.9 µM. In the case of `O=C(CCl)N1CCC(CC2(c3cc4ccccc4[nH]3)OCCO2)CC1`, the EC50 was over 200 µM and the IC50 is 5.01 µM.

For the compound `[O]=[W](=[O])([OH])[OH]`, the result was inactive. As to `CN(C)[C@@H]1C(=O)C(C(=O)NCNc2nc3n[nH]nc3c(=O)[nH]2)=C(O)[C@@]2(O)C(=O)C3=C(O)c4c(O)cccc4[C@@](C)(O)[C@H]3C[C@@H]12`, the EC50 is over 0.891 µM and the IC50 is 0.562 µM. Regarding `CC1(C)C/C(=N/O)c2c(nc3ccc4ccccc4c3c2-c2ccc(Cl)cc2)C1`, the EC50 is over 100 µM and the half-inhibitory concentration (IC50) was determined as 37.2 µM.

With `COc1nc(OC)c2c(=O)oc(-c3ccccc3)cc2n1`, the result was inactive. Take `CCC(Cc1ccccc1)C1=NC(C)(C)CC(C)O1` (configuration not stated): the EC50 is over 200 µM and the concentration for half-maximal inhibition (IC50) is 79.4 µM. As for `COc1ccc(N2C=Nn3c(nc4sc(C)c(C)c4c3=O)C2)cc1`, the outcome was inactive.

`Clc1ccc(CN2CCCN(Cc3ccc(Cl)c(Cl)c3)S2)cc1Cl`: the EC50 was over 61.7 µM and the IC50 was over 61.7 µM. Take `CCC(=O)NC(NNS(=O)(=O)c1ccc(C)cc1)(C(F)(F)F)C(F)(F)F`: the EC50 is over 200 µM and the IC50 worked out at 35.5 µM.

In the case of `NC1CC(=O)c2cc(Cl)sc21` (configuration not stated), the EC50 is over 200 µM and the IC50 is over 200 µM. For the compound `OC1CCSc2ccccc21` (configuration not stated), the EC50 was over 200 µM and the IC50 is over 200 µM. Turning to `CC(C)(C)OC(=O)NCC(O)CNC(=O)OC(C)(C)C`, the EC50 is over 871 µM and the IC50 is over 871 µM. In the case of `CC(=O)N1N=C(c2ccc3ccccc3c2O)CC1C(=O)c1ccco1` (configuration not stated), the EC50 was over 200 µM and the IC50 worked out at 23.4 µM.

As to `CC(C)CC(C(N)=O)C(=O)NC(Cc1ccccc1)NC(=O)CNC(=O)C(C)NC(=O)C(N)Cc1ccc(O)cc1` (configuration not stated), the EC50 is over 200 µM and the IC50 is over 200 µM. Turning to `c1cc2sc1CSCCSCCSC2`, the EC50 is over 38 µM and the IC50 is over 38 µM.

Regarding `S=C1SC2(CCCCCC2)NC2=C1CCCCC2`, the EC50 was over 25.7 µM and the IC50 came to 15.8 µM. On the same counts, the results for `O=Cc1cc(C(=O)OCc2ccccc2)n(S(=O)(=O)c2ccccc2)c1` are over 200 µM and 17.4 µM.

Turning to `OCC1OC(n2nc(-c3ccccc3)nc2-c2cnccn2)C(O)C1O` (configuration not stated), the EC50 is over 200 µM and the IC50 was over 200 µM. Take `OCC(O)C1OC2CC1Nc1ccccc1N2` (configuration not stated): the EC50 was over 200 µM and the IC50 worked out at 97.7 µM. The matching figures for `CNc1c2cccc(C)c2nc2c(C(=O)NCCN(C)C)cccc12`: over 0.2 µM and 0.0191 µM. On the same counts, the results for `O=C(Nc1ccc(-c2cccs2)oc1=O)c1ccccc1` are over 200 µM and over 200 µM. The matching figures for `CCC(C)SC1SCC2C(=O)N(C)C3(CC3C)C(=O)OCC(NC(=O)c3nc4ccccc4cc3O)C(=O)NC(C)C(=O)N(C)C1C(=O)N(C)C1(CC1C)C(=O)OCC(NC(=O)c1nc3ccccc3cc1O)C(=O)NC(C)C(=O)N2C` (configuration not stated): over 0.02 µM and 8.71e-05 µM.

For the compound `COc1ccc(C(O)C(C)C(O)(C(F)(F)F)C(F)(F)F)cc1` (configuration not stated), the EC50 was over 200 µM and the IC50 came out at 95.5 µM. The matching figures for `COc1cc2c(cc1O)[C@H](C)C(c1ccc(OC)c(OC)c1)O2` (some centres not stated): over 214 µM and 10.5 µM.

Consider `COc1ccc(C(=O)/C=C/c2cccnc2)cc1OC`, for which the EC50 is over 200 µM and the IC50 came out at 2.75 µM. The matching figures for `O=C(N1CCCCC(Cl)(Cl)C1=O)C(Cl)(Cl)Cl`: over 759 µM and over 759 µM. The matching figures for `COc1ccc(-c2c(C#N)c(=O)nc(SC)n2C2OCC(OC(C)=O)C(OC(C)=O)C2OC(C)=O)cc1` (configuration not stated): over 200 µM and 35.5 µM.

In the case of `CN(C)C(=S)/N=c1\ssc(=S)n1C1CCCCC1`, the outcome was inactive. With `Nc1ccccc1C(=O)NNC(=O)c1ccccc1N`, the EC50 is over 200 µM and the IC50 is over 200 µM. For `CC(NC(=O)C(C)NC(=O)C(CC(N)=O)NC(=O)CN)C(=O)NC(CO)C(=O)NC(C)C(=O)NC(CCCN=C(N)N)C(N)=O` (configuration not stated) (H-GNAASAR-NH2; configuration not given here), the outcome was inactive.

For orientation: EC50 means the concentration giving half of the maximal effect. For orientation: IC50 means the concentration at which inhibition is half-maximal. Low readings indicate inhibition by little substance, high ones a need for much substance.
